{"source": "paper PMC12096834", "about": "“Antimicrobial peptide plectasin recombinantly produced in Escherichia coli disintegrates cell walls of gram-positive bacteria, as proven by transmission electron and atomic force microscopy” (Journal of Bacteriology, 2025)", "format_in_all_cases": "cell-based", "key": {"Enterococcus faecalis [1]": {"test_system": "Enterococcus faecalis", "assay": "TEM quantification of cells with visible damage", "procedure": "Suspensions of gram-positive bacteria were prepared by taking bacterial colonies out of overnight grown agar plates and resuspending them in MHB. The suspension was set to an OD625 extinction of 0.15–0.20 corresponding to a bacterial cell density of approximately 2 × 10^8 CFU/mL. Then, 3 × 1 mL of suspension was transferred into a 2-mL reaction tube and mixed with either plectasin, CASPON-plectasin, or PBS buffer to obtain volume conditions. The concentration for plectasin was 4 x MIC, and CASPON-plectasin was of the same molar quantity as plectasin. After incubation, the bacterial suspensions were washed with PBS three times, using mild centrifugation conditions for each wash cycle (3,000 g, 15 minutes) to avoid cell damage. Prior to sample preparation, mesh copper grids were pretreated with pioloform film and a thin carbon layer. Additionally, the grids were plasma-cleaned for 10 seconds. All samples were prepared by a negative staining procedure. Sample droplets were placed on copper grids for 10 minutes. Afterward, the grids were placed on a 2% glutaraldehyde in 0.1 M phosphate buffer, washed three times with HQ water, and stained with 1% uranyl acetate for 30 seconds. Grids were then analyzed in the TEM FEI Tecnai G^2 200 kV (Thermo Fisher Scientific, Waltham, MA) under high vacuum with 160 kV. For quantification, each condition (untreated, plectasin-treated, and CASPON-plectasin-treated) and each bacterial strain (the four mentioned above) were analyzed using two independent grid squares per biological duplicate, thus yielding a total of four grid squares per condition. Grid squares comprising ≥11 cells were selected for analysis, and the cells were counted and categorized as “no visible damage” or “visible damage”. Percentages and standard deviations were subsequently calculated for each condition. An example of counting the cells can be found in the supplementary material (Fig. S2)."}, "Enterococcus faecalis [2]": {"test_system": "Enterococcus faecalis", "assay": "AFM cell thickness, stiffness and roughness", "conditions": "plectasin 4 x MIC, CASPON-plectasin same molar quantity, mean ± SD of 20 measurements; for Stiffness: AFM force spectroscopy, untreated 8.0 ± 3.7", "procedure": "(§1) All AFM measurements were performed on a Vecoo-Bruker AFM (Diamond, Chilton, UK), including imaging and force distance measurement. Before and after measurements, the triangular cantilever was cleaned with EtOH and acetone. Sensitivity and the spring constant were calibrated by the thermal tune method by making use of the equipartition theorem, preceded by continued ramping. After calibration, the spring constant was set to 0.4017 N/m for performing measurements.\n(§2) Bacterial suspensions were prepared by taking bacterial colonies out of overnight grown agar plates and resuspending them in MHB. The suspension was set to an OD625 extinction of 0.15–0.20 corresponding to a bacterial cell density of approximately 2 × 10^8 CFU/mL. Then, 3 × 1 mL of suspension was transferred into a 2-mL reaction tube and mixed with either plectasin, CASPON-plectasin, or PBS buffer to obtain volume conditions. The concentration for plectasin was 4 x MIC, and CASPON-plectasin was of the same molar quantity as plectasin. After incubation, the bacterial suspensions were washed with PBS three times, using mild centrifugation conditions for each wash cycle (3,000 g, 15 minutes) to avoid cell damage. The washed bacterial suspension was transferred to borosilicate glass slides (24 mm diameter, 0.1 mm thickness, Menzel Gläser, Braunschweig, Germany) and left to adhere to the surface (electrostatics) for 1 hour. Afterward, the slides were washed with MilliQ water and transferred to AFM.\n(§3) Bacterial images were visualized by square areas of 2 × 2 µm^2 up to 25 × 25 µm^2 with a resolution of 512 × 512 pixels. At least 15 images were taken per sample with different square dimensions for proper visualization. Surface roughness and shapes of the bacterial cell were estimated using Gwyddion software after applying a mean filter to the raw images. A total of 20 measurements were taken on cells for each parameter, providing enough values for statistical evaluation. For additional information and an illustration of the determination principle, please refer to the supplementary material (Fig. S3), which includes an example on S. aureus. By using the following equations, the surface roughness of a selected area of this flattened area was calculated from the standard deviation in the height image. The mean roughness (Ra) and the root-mean-square roughness (Rq or RMS) were used to characterize the surface of different samples:\n(§4) After the position of the bacteria was determined, force spectroscopy was performed. Measurement of the central region of bacteria was performed with an approach speed of 10 µm/s and a maximum force of 2 nN. A curve length of 1 µm and a sampling rate of 2 kHz were used. At least 20 bacteria per sample were measured. Analysis of the force distance curves was performed using the software NanoScope Analysis 1.5. For calculating the stiffness of each bacterial cell, the following question was utilized:\n(§5) where keff is the effective stiffness (received from the slope of the measured curve), ksample is the stiffness of the sample (bacterial cell), and kspring is the spring constant (0.4017 N/m). All constants have the unit N/m. Rearrangement of the formula leads to the following relation: […]\n(§6) Measurements were pooled, and properties were calculated as described above. For each parameter, 20 measurements were used to obtain appropriate statistical values. Analysis of variance (ANOVA) was performed, followed by Student’s t-test, which is a statistical procedure that compares the averages of two independent groups (plectasin/CASPON-plectasin treated vs untreated) to determine significance in the surface roughness and stiffness of bacteria. Significances are indicated in figures and reported as “ns” for P > 0.05, “*” for P ≤ 0.05, “**” for P ≤ 0.01, and “***” for P ≤ 0.001."}, "Listeria monocytogenes": {"test_system": "Listeria monocytogenes", "assay": "AFM cell thickness, stiffness and roughness", "conditions": "plectasin 4 x MIC, CASPON-plectasin same molar quantity, mean ± SD of 20 measurements; for Stiffness: AFM force spectroscopy, untreated 5.4 ± 3.1", "procedure": "as §1, §2, §3, §4, §5, §6"}, "Staphylococcus aureus": {"test_system": "Staphylococcus aureus", "assay": "AFM cell thickness, stiffness and roughness", "conditions": "plectasin 4 x MIC, CASPON-plectasin same molar quantity, mean ± SD of 20 measurements; for Stiffness: AFM force spectroscopy, untreated 5.3 ± 2.3", "procedure": "as §1, §2, §3, §4, §5, §6"}, "Streptococcus pneumoniae": {"test_system": "Streptococcus pneumoniae", "assay": "AFM cell thickness, stiffness and roughness", "conditions": "plectasin 4 x MIC, CASPON-plectasin same molar quantity, mean ± SD of 20 measurements; for Stiffness: AFM force spectroscopy, untreated 6.2 ± 2.4", "procedure": "as §1, §2, §3, §4, §5, §6"}}, "data": [{"molecule": "CC[C@H](C)[C@@H]1NC(=O)[C@H](CO)NC(=O)[C@H](CCCCN)NC(=O)[C@@H]2CSSC[C@@H](C(=O)N[C@@H](Cc3ccc(O)cc3)C(=O)O)NC(=O)[C@H](CCCCN)NC(=O)[C@@H]3CSSC[C@H](NC(=O)[C@H](CCC(N)=O)NC(=O)[C@H](CCSC)NC(=O)[C@H](CC(=O)O)NC(=O)[C@H](CC(=O)O)NC(=O)[C@H](CCC(=O)O)NC(=O)[C@H](CC(=O)O)NC(=O)[C@H](Cc4c[nH]c5ccccc45)NC(=O)[C@@H]4CCCN4C(=O)CNC(=O)[C@H](CC(N)=O)NC(=O)[C@@H](NC(=O)CNC(=O)[C@H](Cc4ccccc4)NC(=O)CN)CSSC[C@H](NC(=O)[C@H](Cc4ccc(O)cc4)NC(=O)CNC(=O)CNC(=O)[C@H](CCCCN)NC(=O)[C@H](Cc4ccc(O)cc4)NC(=O)CNC(=O)[C@H](CCCCN)NC1=O)C(=O)N[C@@H](C)C(=O)N[C@@H](CCCCN)C(=O)NCC(=O)NCC(=O)N[C@@H](Cc1ccccc1)C(=O)N[C@@H](C(C)C)C(=O)N3)C(=O)N[C@@H](Cc1c[nH]cn1)C(=O)N[C@@H](CC(N)=O)C(=O)N[C@@H](Cc1c[nH]cn1)C(=O)N2", "note": "[Plectasin, plectasin]", "values": [{"measurement": "No visible damage (%)", "setting": "Enterococcus faecalis [1]; Grid Square 1", "result": 29.41, "unit": "%"}, {"measurement": "Visible damage (%)", "setting": "Enterococcus faecalis [1]; Grid Square 1", "result": 70.59, "unit": "%"}, {"measurement": "No visible damage (%)", "setting": "Enterococcus faecalis [1]; Grid Square 2", "result": 28.57, "unit": "%"}, {"measurement": "Visible damage (%)", "setting": "Enterococcus faecalis [1]; Grid Square 2", "result": 71.43, "unit": "%"}, {"measurement": "No visible damage (%)", "setting": "Enterococcus faecalis [1]; Grid Square 3", "result": 21.05, "unit": "%"}, {"measurement": "Visible damage (%)", "setting": "Enterococcus faecalis [1]; Grid Square 3", "result": 78.95, "unit": "%"}, {"measurement": "No visible damage (%)", "setting": "Enterococcus faecalis [1]; Grid Square 4", "result": 27.78, "unit": "%"}, {"measurement": "Visible damage (%)", "setting": "Enterococcus faecalis [1]; Grid Square 4", "result": 72.22, "unit": "%"}, {"measurement": "cells with visible damage", "setting": "Enterococcus faecalis [1]; negative staining, plectasin 4 x MIC, CASPON-plectasin same molar quantity, mean ± SD of four grid squares (two biological replicates), untreated 4.07, SD", "result": "73.30% ± 3.31%"}, {"measurement": "cells with no visible damage", "setting": "Enterococcus faecalis [1]; negative staining, plectasin 4 x MIC, CASPON-plectasin same molar quantity, mean ± SD of four grid squares, untreated 95.93% ± 2.41%", "result": 26.70, "unit": "%"}, {"measurement": "Stiffness", "setting": "Enterococcus faecalis [2]", "result": "approximately 4 N/m"}, {"measurement": "Stiffness", "setting": "Enterococcus faecalis [2]; SD", "result": "4.6 ± 1.9", "unit": "N/m"}, {"measurement": "Ra (mean roughness)", "setting": "Enterococcus faecalis [2]; AFM, untreated 10.0 ± 2.5, SD", "result": "19.4 ± 3.2", "unit": "nm"}, {"measurement": "Rq (root-mean-square roughness)", "setting": "Enterococcus faecalis [2]; AFM, untreated 12.2 ± 3.4, SD", "result": "23.5 ± 3.4", "unit": "nm"}, {"measurement": "Cell thickness", "setting": "Enterococcus faecalis [2]; AFM, untreated 480.3 ± 30.6, SD", "result": "473.5 ± 47.5", "unit": "nm"}, {"measurement": "Stiffness", "setting": "Listeria monocytogenes", "result": "approximately 4 N/m"}, {"measurement": "Stiffness", "setting": "Listeria monocytogenes; SD", "result": "3.5 ± 1.4", "unit": "N/m"}, {"measurement": "Ra (mean roughness)", "setting": "Listeria monocytogenes; AFM, untreated 8.1 ± 2.5, SD", "result": "13.5 ± 2.4", "unit": "nm"}, {"measurement": "Rq (root-mean-square roughness)", "setting": "Listeria monocytogenes; AFM, untreated 11.2 ± 3.4, SD", "result": "16.9 ± 2.8", "unit": "nm"}, {"measurement": "Cell thickness", "setting": "Listeria monocytogenes; AFM, untreated 297.0 ± 13.3, SD", "result": "297.8 ± 14.0", "unit": "nm"}, {"measurement": "Stiffness", "setting": "Staphylococcus aureus", "result": "approximately 4 N/m"}, {"measurement": "Stiffness", "setting": "Staphylococcus aureus; SD", "result": "3.7 ± 1.7", "unit": "N/m"}, {"measurement": "Ra (mean roughness)", "setting": "Staphylococcus aureus; AFM, untreated 19.4 ± 3.5, SD", "result": "24.76 ± 6.7", "unit": "nm"}, {"measurement": "Rq (root-mean-square roughness)", "setting": "Staphylococcus aureus; AFM, untreated 24.0 ± 4.4, SD", "result": "30.9 ± 8.0", "unit": "nm"}, {"measurement": "Cell thickness", "setting": "Staphylococcus aureus; AFM, untreated 485.9 ± 26.5, SD", "result": "467.2 ± 45.1", "unit": "nm"}, {"measurement": "Stiffness", "setting": "Streptococcus pneumoniae", "result": "approximately 4 N/m"}, {"measurement": "Stiffness", "setting": "Streptococcus pneumoniae; SD", "result": "4.7 ± 1.1", "unit": "N/m"}, {"measurement": "Ra (mean roughness)", "setting": "Streptococcus pneumoniae; AFM, untreated 15.5 ± 4.2, SD", "result": "19.7 ± 5.3", "unit": "nm"}, {"measurement": "Rq (root-mean-square roughness)", "setting": "Streptococcus pneumoniae; AFM, untreated 18.8 ± 4.8, SD", "result": "24.5 ± 6.0", "unit": "nm"}, {"measurement": "Cell thickness", "setting": "Streptococcus pneumoniae; AFM, untreated 375.8 ± 28.4, SD", "result": "366.0 ± 54.1", "unit": "nm"}]}]}
